Test results as given in patent US8999456B2, “Method for manufacturing of drug-releasing stent coated with titanium—oxide thin film” (Industry Foundation of Chonnam National University, priority 2009, dated 2015).

Test: Quantity of drug attached to the stent by UV absorbance and calibration curves
Format: physicochemical
Details: FIG. 7
Description: In order to measure the quantity of α-lipoic acid and ReoPro attached to the stent, standard solutions with four concentrations were prepared for each drug. Absorbance was measured using a UV spectrometer (Shimadzu 1601, Japan) at 330 nm for α-lipoic acid and at 278 nm for ReoPro. Thus, calibration curves were drawn for α-lipoic acid and ReoPro. Then, in order to measure the quantity of the drugs attached to the stent, each 500 μL of the reaction solution was taken before and after the reaction, which were diluted by mixing with triple distilled water (2.5 mL) and subjected to absorbance measurement at 278 nm and 330 nm, respectively. The measurement result was compared with the calibration curves to determine the quantity of α-lipoic acid and ReoPro attached to the stent.
After binding a drug on the surface of the stent that had been modified with hydroxyl groups, the amount of the bound drug was calculated using the calibration curves. […] Therefore, it can be seen that a 10 to 50 W is ideal for modification of the titanium dioxide thin film using water.

With `O=C(O)CCCCC1CCSS1` (stereo not drawn) [α-lipoic acid] the “quantity of attached α-lipoic acid” value (discharge power applied for the surface modification 20 W) was 250 µg, the “quantity of attached α-lipoic acid” value (surface modification at 60 W) was “decreased remarkably” and the “quantity of attached α-lipoic acid” value (thin films modified at 10, 30, 40 and 50 W) was “about 150 μg”.
